Test results reported in patent publication US10729680B2, “5-substituted 2-(morpholin-4-yl)-1,7-naphthyridines” (BAYER PHARMA AKTIENGESELLSCHAFT, priority 2016, dated 2020).
pIC50: −log10 of the molar value.

Key:
[1] = test system: HeLa cells; test: Proliferation assay (HeLa, crystal violet); type: cell-based; conditions: Homo sapiens, 96 h, 4 days incubation, crystal violet staining, read-out: Inhibition of HeLa cell proliferation
Description: Human tumour cells were originally obtained from the American Type Culture Collection (ATCC), the Deutsche Sammlung von Mikroorganismen und Zellkulturen (DSMZ, German Collection of Microorganisms and Cell Cultures) or Epo GmbH, Berlin.
Adherently growing cells (HeLa, HeLa-MaTu-ADR, HT-144, Lovo, HT-29, NCI-H460, DU145, Caco2, B16F10) were plated out in a density of 1500-4000 cells/measurement point, depending on the rate of growth of the cell line, in a 96-well multititre plate in 200 μl of growth medium (DMEM/HAMS F12, 2 mM L-glutamine, 10% foetal calf serum). After 24 hours, the cells of one plate (zero plate) were dyed with crystal violet (see below), whereas the medium of the other plates was replaced with fresh culture medium (200 μl) to which the test substances were added in various concentrations (0 μM, and also in the range of 0.001-10 μM; the final concentration of the solvent dimethyl sulphoxide was 0.1 or 0.5%). The cells were incubated for 4 days in the presence of the test substances. Cell proliferation was determined by staining the cells with crystal violet: the cells were fixed at room temperature for 15 min by adding 20 μl/measurement point of an 11% strength glutaraldehyde solution. After washing the fixed cells three times with water, the plates were dried at room temperature. The cells were stained by adding 100 μl/measurement point of a 0.1% strength crystal violet solution (pH adjusted to pH 3 by adding acetic acid). After washing the cells three times with water, the plates were dried at room temperature. The dye was dissolved by adding 100 μl/measurement point of a 10% strength acetic acid solution. Absorbance was determined photometrically at a wavelength of 595 nm. The percentage change in cell growth was calculated by normalizing the measured values to the absorbance values of the zero plate (=0%) and the absorbance of the untreated (0 μM) cells (=100%). The IC50 values were determined by means of a four parameter fit.
Inhibition of proliferation of HeLa cells by compounds according to the present invention, determined as described above. All IC50 (inhibitory concentration at 50% of maximal effect) values are indicated in M, “n.t.” means that the compounds have not been tested in the respective assay.

[2] = molecular target: full-length human ATR protein (ATR/ATRIP) (Homo sapiens (Human), UniProt Q13535); test: Binding Assay ATR (TR-FRET, tracer A displacement); conditions: displacement of fluorescent tracer A from GST-ATR/ATRIP
Sequence of full-length human ATR protein (ATR/ATRIP) (Q13535 other isoform, or with tags, fused parts or gaps): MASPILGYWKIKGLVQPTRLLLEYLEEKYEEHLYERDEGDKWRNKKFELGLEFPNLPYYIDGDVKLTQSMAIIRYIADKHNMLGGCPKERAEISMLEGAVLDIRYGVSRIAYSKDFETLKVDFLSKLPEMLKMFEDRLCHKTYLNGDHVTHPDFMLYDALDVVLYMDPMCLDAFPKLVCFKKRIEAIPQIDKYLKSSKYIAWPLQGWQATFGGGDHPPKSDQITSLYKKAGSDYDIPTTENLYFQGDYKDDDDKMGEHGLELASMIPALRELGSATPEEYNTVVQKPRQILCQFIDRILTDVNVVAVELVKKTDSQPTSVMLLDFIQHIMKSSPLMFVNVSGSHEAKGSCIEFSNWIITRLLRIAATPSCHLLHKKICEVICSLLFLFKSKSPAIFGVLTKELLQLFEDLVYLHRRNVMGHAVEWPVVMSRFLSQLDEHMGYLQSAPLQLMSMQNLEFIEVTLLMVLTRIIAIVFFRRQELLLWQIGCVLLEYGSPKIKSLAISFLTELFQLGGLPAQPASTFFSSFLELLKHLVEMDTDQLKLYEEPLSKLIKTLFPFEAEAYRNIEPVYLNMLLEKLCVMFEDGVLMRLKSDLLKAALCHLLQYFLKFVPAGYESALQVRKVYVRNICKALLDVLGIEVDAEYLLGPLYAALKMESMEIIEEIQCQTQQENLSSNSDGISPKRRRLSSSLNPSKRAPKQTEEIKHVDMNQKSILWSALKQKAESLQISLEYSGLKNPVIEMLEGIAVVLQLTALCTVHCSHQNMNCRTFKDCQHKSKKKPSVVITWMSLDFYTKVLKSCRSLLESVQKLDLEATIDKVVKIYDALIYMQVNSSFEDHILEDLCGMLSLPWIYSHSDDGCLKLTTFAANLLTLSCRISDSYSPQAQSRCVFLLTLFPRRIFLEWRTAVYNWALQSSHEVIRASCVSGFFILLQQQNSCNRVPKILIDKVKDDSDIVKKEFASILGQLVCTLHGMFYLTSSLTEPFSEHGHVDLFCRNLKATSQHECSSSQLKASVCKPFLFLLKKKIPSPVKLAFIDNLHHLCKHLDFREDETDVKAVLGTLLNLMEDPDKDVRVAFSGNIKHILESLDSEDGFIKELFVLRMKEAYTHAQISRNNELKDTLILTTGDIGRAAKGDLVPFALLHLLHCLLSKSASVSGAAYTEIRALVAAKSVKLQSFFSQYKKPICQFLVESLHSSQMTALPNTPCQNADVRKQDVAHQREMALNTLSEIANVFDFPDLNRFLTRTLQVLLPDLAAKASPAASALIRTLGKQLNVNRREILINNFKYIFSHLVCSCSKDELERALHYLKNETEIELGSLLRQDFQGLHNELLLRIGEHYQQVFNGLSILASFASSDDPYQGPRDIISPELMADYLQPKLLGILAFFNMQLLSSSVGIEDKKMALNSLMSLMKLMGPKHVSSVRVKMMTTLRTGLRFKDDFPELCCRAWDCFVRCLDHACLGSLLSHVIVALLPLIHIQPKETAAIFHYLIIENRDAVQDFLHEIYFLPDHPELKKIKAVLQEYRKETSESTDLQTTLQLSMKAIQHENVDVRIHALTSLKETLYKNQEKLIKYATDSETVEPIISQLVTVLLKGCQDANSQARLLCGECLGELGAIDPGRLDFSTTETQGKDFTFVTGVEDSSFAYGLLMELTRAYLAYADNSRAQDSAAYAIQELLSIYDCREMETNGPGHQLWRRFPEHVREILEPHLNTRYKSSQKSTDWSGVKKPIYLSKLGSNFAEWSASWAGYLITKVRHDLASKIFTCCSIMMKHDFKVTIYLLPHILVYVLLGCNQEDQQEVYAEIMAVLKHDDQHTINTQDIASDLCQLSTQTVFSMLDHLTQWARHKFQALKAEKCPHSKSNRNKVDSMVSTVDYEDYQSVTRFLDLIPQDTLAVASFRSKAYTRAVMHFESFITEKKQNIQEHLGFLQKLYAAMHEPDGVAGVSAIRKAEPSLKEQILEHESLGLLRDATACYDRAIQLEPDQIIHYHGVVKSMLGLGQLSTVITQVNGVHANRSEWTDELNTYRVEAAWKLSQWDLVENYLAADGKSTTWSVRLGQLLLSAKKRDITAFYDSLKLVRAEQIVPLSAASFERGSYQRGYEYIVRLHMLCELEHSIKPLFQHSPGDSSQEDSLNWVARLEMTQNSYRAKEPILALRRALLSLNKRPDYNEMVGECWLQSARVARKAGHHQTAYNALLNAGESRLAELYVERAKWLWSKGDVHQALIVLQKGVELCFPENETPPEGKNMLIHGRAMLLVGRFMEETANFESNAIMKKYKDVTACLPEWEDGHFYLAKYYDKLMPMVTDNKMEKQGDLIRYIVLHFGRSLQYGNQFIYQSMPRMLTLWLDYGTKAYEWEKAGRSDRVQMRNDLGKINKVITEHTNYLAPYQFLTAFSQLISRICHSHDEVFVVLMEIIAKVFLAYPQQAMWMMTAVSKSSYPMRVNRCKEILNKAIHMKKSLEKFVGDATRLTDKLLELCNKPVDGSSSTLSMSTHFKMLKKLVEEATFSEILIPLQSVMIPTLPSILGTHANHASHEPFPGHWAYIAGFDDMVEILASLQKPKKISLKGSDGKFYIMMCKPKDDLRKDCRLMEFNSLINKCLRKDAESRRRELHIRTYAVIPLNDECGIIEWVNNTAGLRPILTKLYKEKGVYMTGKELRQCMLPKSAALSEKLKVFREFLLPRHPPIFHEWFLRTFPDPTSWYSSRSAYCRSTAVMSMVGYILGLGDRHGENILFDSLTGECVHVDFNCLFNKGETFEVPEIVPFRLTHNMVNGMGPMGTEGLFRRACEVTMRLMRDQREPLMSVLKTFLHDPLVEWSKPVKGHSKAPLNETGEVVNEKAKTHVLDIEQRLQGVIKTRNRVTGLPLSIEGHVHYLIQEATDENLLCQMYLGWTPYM
Sequence of full-length human ATR protein (ATR/ATRIP) (Q8WXE1 other isoform, or with tags, fused parts or gaps partner): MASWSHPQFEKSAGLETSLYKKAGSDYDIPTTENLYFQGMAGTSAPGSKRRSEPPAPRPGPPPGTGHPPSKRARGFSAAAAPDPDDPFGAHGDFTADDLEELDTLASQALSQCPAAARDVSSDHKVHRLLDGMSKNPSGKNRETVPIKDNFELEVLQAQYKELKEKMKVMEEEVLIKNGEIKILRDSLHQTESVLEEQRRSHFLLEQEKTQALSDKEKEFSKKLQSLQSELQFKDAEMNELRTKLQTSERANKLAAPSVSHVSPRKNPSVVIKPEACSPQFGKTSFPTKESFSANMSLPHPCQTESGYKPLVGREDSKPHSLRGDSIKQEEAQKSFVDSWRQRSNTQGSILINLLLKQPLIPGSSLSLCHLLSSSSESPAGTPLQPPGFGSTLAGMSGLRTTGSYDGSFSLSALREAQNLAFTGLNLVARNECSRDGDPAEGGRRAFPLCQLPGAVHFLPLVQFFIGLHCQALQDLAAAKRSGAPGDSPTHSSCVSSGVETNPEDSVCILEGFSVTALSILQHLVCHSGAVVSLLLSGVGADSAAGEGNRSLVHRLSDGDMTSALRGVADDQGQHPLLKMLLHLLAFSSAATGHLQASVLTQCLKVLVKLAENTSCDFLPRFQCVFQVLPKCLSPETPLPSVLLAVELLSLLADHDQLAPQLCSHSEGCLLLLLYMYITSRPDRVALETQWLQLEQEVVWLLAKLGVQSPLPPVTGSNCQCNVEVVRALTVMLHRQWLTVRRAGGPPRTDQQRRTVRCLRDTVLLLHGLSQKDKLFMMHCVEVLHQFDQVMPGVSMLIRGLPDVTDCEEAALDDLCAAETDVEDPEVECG
Description: To determine of binding activity of the test compounds, full-length human ATR protein was expressed and purified together with ATRIP as described above. Furthermore, a fluorescently labelled compound (tracer A as described above) was used as a tracer molecule. Detection of the binding event of the tracer was achieved by time-resolved fluorescence energy transfer (TR-FRET). We used an anti-GST-Terbium antibody (CisBio) that binds to the GST-tag at the N-terminus of ATR-kinase. Excitation of Terbium with 337 nm light results in emission of fluorescent light with 545 nm. In case a tetrameric complex has formed (antiGST-Tb+GST-ATR+Strp2-ATRIP+tracer), part of the energy will be transferred from the Terbium to the fluorophore that itself emits light of 570 nm. Displacement of the fluorescent tracer by a test compound leads to a reduction of the TR-FRET-signal.
For the assay 50 nl of a 100-fold concentrated solution of the test compound in DMSO was pipetted into a black low volume 384 well microtiter plate (MTP, Greiner Bio-One, Frickenhausen, Germany). To prepare the ATR-working solution, ATR/ATRIP stock solution was diluted in assay buffer [50 mM HEPES (pH 7.0), 10 mM MgCl2, 1 mM DTT, 0.01% (w/v) Igepal, 0.01% (w/v) BSA] to 4.2 nM protein concentration (concentration may vary from lot to lot of protein preparation). AntiGST-Tb antibody was diluted to 4.2 nM. The ATR-working solution was incubated for 30 min at 22° C. prior to dispensing to pre-form the complex of antiGST-Tb+GST-ATR+ATRIP. Then, 3 μl of the ATR-working solution were added to the test compound and the mixture was incubated for 10 min at 22° C. to allow pre-binding of the test compounds to ATR/ATRIP. Then, 2 μl of a 100 nM solution of tracer A in assay buffer were added to the ATR-working solution. The resulting mixture was incubated for 30 min at 22° C. The measurement of the TR-FRET signal was performed in a standard HTRF-compatible MTP reader instrument (e.g. BMG Pherastar) by recording the fluorescence emissions at 545 nm and 570 nm after excitation at 337-350 nm. The ratio between emission at 570 nm divided by emission at 545 nm was calculated to give the well ratio. The experimental data (well ratios) were normalised by the following way: positive control contained ATR-working solution plus tracer A solution (=0% inhibition), the negative control contained all components except GST-ATR/ATRIP (=100% inhibition). Usually the compounds were tested on the same MTP in 11 different concentrations in the range of 20 μM to 0.1 nM (20 μM, 5.9 μM, 1.7 μM, 0.51 μM, 0.15 μM, 44 nM, 13 nM, 3.8 nM, 1.1 nM, 0.33 nM and 0.1 nM). The dilution series were prepared separately before the assay on the level of the 100 fold concentrated solutions in DMSO by serial 1:3.4 dilutions in duplicate values for each concentration. IC50 values were calculated by a 4 parameter fit using standard software (GraphPad prism or equivalent).

Cc1cnc(-c2ccn[nH]2)c2nc(N3CCOC[C@H]3C)cc(-c3cccnc3F)c12 [Example 3, 4-(2-fluoropyridin-3-yl)-5-methyl-2-[(3R)-3-methylmorpholin-4-yl]-8-(1H-pyrazol-5-yl)-1,7-naphthyridine]
pIC50 [1]: 6.81 | pIC50 [2]: 8.09

Cc1nc(S(C)(=O)=O)ccc1-c1cc(N2CCOC[C@H]2C)nc2c(-c3ccn[nH]3)ncc(C)c12 [Example 4, 5-methyl-4-[2-methyl-6-(methylsulfonyl)pyridin-3-yl]-2-[(3R)-3-methylmorpholin-4-yl]-8-(1H-pyrazol-5-yl)-1,7-naphthyridine]
pIC50 [1]: 6.48 | pIC50 [2]: 7.43

Cc1cnc(-c2ccn[nH]2)c2nc(N3CCOC[C@H]3C)cc(-c3cnc(Cl)n3C)c12 [Example 5, 4-(2-chloro-1-methyl-1H-imidazol-5-yl)-5-methyl-2-[(3R)-3-methylmorpholin-4-yl]-8-(1H-pyrazol-5-yl)-1,7-naphthyridine]
pIC50 [1]: 7.07 | pIC50 [2]: 8.29

Cc1cnc(-c2ccn[nH]2)c2nc(N3CCOC[C@H]3C)cc(-c3ccc(N4CCNCC4)cc3F)c12 [Example 6, 4-[2-fluoro-4-(piperazin-1-yl)phenyl]-5-methyl-2-[(3R)-3-methylmorpholin-4-yl]-8-(1H-pyrazol-5-yl)-1,7-naphthyridine]
pIC50 [1]: 6.53 | pIC50 [2]: 7.85

Cc1cnc(-c2ccn[nH]2)c2nc(N3CCOC[C@H]3C)cc(-c3cccc(F)c3F)c12 [Example 7, 4-(2,3-difluorophenyl)-5-methyl-2-[(3R)-3-methylmorpholin-4-yl]-8-(1H-pyrazol-5-yl)-1,7-naphthyridine]
pIC50 [1]: 6.30 | pIC50 [2]: 8.08

Cc1cnc(-c2ccn[nH]2)c2nc(N3CCOC[C@H]3C)cc(N=S3(=O)CCCC3)c12 [Example 8, N-5-methyl-2-[(3R)-3-methylmorpholin-4-yl]-8-(1H-pyrazol-5-yl)-1,7-naphthyridin-4-yltetrahydro-1H-1λ^4-thiophen-1-imine 1-oxide]
pIC50 [1]: 6.33 | pIC50 [2]: 7.45

CCS(=O)(CC)=Nc1cc(N2CCOC[C@H]2C)nc2c(-c3ccn[nH]3)ncc(C)c12 [Example 9, 4-[diethyl(oxido)-λ^6-sulfanylidene]amino-5-methyl-2-[(3R)-3-methylmorpholin-4-yl]-8-(1H-pyrazol-5-yl)-1,7-naphthyridine]
pIC50 [1]: 6.93 | pIC50 [2]: 7.85

Cc1cnc(-c2ccn[nH]2)c2nc(N3CCOC[C@H]3C)cc(N3CCOCC3)c12 [Example 10, 5-methyl-2-[(3R)-3-methylmorpholin-4-yl]-4-(morpholin-4-yl)-8-(1H-pyrazol-5-yl)-1,7-naphthyridine]
pIC50 [1]: 6.96 | pIC50 [2]: 8.05

Cc1cnc(-c2ccn[nH]2)c2nc(N3CCOC[C@H]3C)cc(N3CCC(CO)CC3)c12 [Example 11, (1-{5-methyl-2-[(3R)-3-methylmorpholin-4-yl]-8-(1H-pyrazol-5-yl)-1,7-naphthyridin-4-yl}piperidin-4-yl)methanol]
pIC50 [1]: 7.48 | pIC50 [2]: 8.42

Cc1cnc(-c2ccn[nH]2)c2nc(N3CCOC[C@H]3C)cc(N3CCN(S(C)(=O)=O)CC3)c12 [Example 12, 5-methyl-2-[(3R)-3-methylmorpholin-4-yl]-4-[4-(methylsulfonyl)piperazin-1-yl]-8-(1H-pyrazol-5-yl)-1,7-naphthyridine]
pIC50 [1]: 6.36 | pIC50 [2]: 8.26

Cc1cnc(-c2ccn[nH]2)c2nc(N3CCOC[C@H]3C)cc(N(C)CC(C)(C)C)c12 [Example 13, N-(2,2-dimethylpropyl)-N,5-dimethyl-2-[(3R)-3-methylmorpholin-4-yl]-8-(1H-pyrazol-5-yl)-1,7-naphthyridin-4-amine]
pIC50 [1]: 6.13 | pIC50 [2]: 8.31

COC(=O)c1cc(N2CCOC[C@H]2C)nc2c(-c3ccn[nH]3)ncc(C)c12 [Example 14, methyl 5-methyl-2-[(3R)-3-methylmorpholin-4-yl]-8-(1H-pyrazol-5-yl)-1,7-naphthyridine-4-carboxylate]
pIC50 [1]: 6.36 | pIC50 [2]: 7.28
